pKi: −log10 of the molar value. Read-outs that look alike come from different tables or passages of the source. Where a SMILES comes first, the peptide text is derived from it. [ ]: non-standard residue; d: D form. The star is where a group is joined. AMC = Cc1cc(=O)oc2cc(N*)ccc12
Legend:
[1] = DP IV-catalyzed truncation of peptides, half-life by MALDI-TOF MS; assay type: biochemical
Procedure: (§1) In particular, the capability of purified DP IV from human, from porcine kidney, of recombinant human DP IV and the DP IV activity of the human serum to truncate the peptides of the GRF family were analyzed.
(§2) 250 single laser-shot spectra were accumulated.

[2] = biological target: T1, recombinant human DP IV, mutation W629A (Homo sapiens, UniProt P27487, W629A); assay: Kinetic characterization of substrate hydrolysis (Km, kcat); conditions: mu 16 DP IV (W629A)
T1 sequence (P27487 37-766 W629A): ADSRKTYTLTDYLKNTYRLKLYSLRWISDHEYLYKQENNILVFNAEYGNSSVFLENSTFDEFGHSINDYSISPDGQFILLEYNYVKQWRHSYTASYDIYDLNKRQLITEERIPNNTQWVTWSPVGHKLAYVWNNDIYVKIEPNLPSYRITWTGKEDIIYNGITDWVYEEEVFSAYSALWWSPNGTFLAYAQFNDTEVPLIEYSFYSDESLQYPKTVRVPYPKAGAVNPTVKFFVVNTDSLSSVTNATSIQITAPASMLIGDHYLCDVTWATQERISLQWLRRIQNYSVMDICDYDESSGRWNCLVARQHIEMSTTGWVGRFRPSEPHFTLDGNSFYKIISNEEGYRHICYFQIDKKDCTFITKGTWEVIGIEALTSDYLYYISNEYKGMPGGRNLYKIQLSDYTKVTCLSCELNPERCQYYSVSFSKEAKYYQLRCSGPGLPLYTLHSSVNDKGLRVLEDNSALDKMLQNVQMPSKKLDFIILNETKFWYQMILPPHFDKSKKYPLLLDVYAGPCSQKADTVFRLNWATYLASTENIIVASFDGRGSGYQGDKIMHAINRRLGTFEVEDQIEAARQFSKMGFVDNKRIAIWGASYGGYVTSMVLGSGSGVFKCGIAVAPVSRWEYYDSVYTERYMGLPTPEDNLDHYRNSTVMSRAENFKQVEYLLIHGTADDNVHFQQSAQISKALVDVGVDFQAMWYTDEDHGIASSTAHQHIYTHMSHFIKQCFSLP

[3] = biological target: T2, recombinant human DP IV, wild type (Homo sapiens, UniProt P27487); assay: as above; assay type: biochemical; conditions: rh wt DP IV
T2 construct: His6 (N); made in house; host or cells: Pichia pastoris X-33 (vector pPICαC, secreted into the medium)
T2 sequence (P27487 37-766): as the sequence (P27487 37-766 W629A) above, with A593W counted along it

[4] = biological target: T3, recombinant human DP IV, mutation R560A (Homo sapiens, UniProt P27487, R560A); assay: as above; conditions: mu 15 DP IV (R560A)
T3 sequence (P27487 37-766 R560A): as the sequence (P27487 37-766 W629A) above, with R524A, A593W counted along it

DP IV [5] = assay: DP IV-catalyzed peptide truncation test with or without preincubation with effector peptide; assay type: biochemical; conditions: for affinity of larger oligopeptides such as GIP, VIP, glucagon / binding and hydrolysis of small dipeptide substrates: DP IV preincubated with the peptide
Procedure: as §2
In order to investigate directly the influence of the test compounds TFTSDY, TFTDDY and H-Ser-D-Glu-Thr-Gly-D-Val-D-Lys-D-Val-OH on the DP IV-catalyzed peptide hydrolysis the MALDI-TOF assay was used.
As described before (determination of t1/2) DP IV and the test compounds were preincubated and the reaction was started by adding the enzyme/hexapeptide mixture to substrate/buffer mix. The control reaction mixture consisted of buffer, enzyme and substrate. From the curves of the first order exponential the initial rate (vi) for the control and the reversible inhibited reaction was calculated.

[6] = Stability in biological fluids (human serum or plasma)
DP IV [7] = assay: DP IV-catalyzed hydrolysis, determination of Km; assay type: biochemical
[8] = biological target: T1, recombinant human DP IV, mutation W629A; assay: Ki in competition to standard substrate GP-4NA; assay type: biochemical; design: His6 (N); made in house; host or cells: Pichia pastoris X-33 (vector pPICαC, secreted); conditions: mu 16 DP IV (W629A), competition to GP-4NA
Procedure: (§3) In order to measure the inhibition constant Ki a photometric assay was used The peptides were measured as competitors of the standard substrate GP-4-Nitroanilide. Three different substrate concentrations (0.4 mM to 0.05 mM) were combined with 8 different competitor concentrations (0.5 mM to 2 μM). […] Experiments were carried out under standard conditions: 30° C. in pH 7.6 40 mM HEPES (Sigma-Aldrich) buffer. Nitroaniline production was monitored using a HTS 7000+ microplate reader (PerkinElmer, Überlingen, Germany).

[9] = biological target: T3, recombinant human DP IV, mutation R560A; assay: Ki in competition to standard substrate GP-4NA; assay type: biochemical; design: His6 (N); made in house; host or cells: Pichia pastoris X-33 (vector pPICαC, secreted); conditions: mu 15 DP IV (R560A), competition to GP-4NA
Procedure: as §3

[10] = biological target: T2, recombinant human DP IV, wild type; assay: Ki in competition to standard substrate GP-4NA; assay type: biochemical; conditions: rh wt DP IV, competition to GP-4NA; for pKi: read-out: Ki
Procedure: as §3

[11] = biological target: T4, porcine kidney DP IV, wild type (Sus scrofa, UniProt P22411); assay: Kinetic characterization of substrate hydrolysis (Km); assay type: biochemical; conditions: p wt DP IV
T4 construct: the DP IV-protein was released from the membrane by an 18 h autolysis step at 30° C; from tissue; host or cells: porcine kidney cortex
T4 sequence (P22411 38-766 limits assumed): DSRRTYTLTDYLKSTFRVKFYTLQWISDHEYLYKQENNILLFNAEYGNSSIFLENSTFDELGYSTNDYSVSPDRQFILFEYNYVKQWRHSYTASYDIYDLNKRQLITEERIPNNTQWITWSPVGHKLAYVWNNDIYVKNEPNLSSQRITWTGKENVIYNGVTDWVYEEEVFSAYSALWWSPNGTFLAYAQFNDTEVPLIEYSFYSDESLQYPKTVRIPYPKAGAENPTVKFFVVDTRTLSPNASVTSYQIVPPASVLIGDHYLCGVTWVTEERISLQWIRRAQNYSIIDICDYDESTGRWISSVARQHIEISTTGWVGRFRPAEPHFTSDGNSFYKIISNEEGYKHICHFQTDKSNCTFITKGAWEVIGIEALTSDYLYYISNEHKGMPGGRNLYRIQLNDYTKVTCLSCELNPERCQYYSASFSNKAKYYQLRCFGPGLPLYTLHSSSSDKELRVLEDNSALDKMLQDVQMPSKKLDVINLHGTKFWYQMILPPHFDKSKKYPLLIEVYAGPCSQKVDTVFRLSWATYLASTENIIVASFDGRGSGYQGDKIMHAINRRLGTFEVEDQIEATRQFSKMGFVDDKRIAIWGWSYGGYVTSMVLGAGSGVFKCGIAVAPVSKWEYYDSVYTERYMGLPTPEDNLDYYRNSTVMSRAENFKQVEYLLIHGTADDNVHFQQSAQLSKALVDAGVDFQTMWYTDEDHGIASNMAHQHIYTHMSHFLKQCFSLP

[12] = biological target: T4, porcine kidney DP IV, wild type; assay: Ki in competition to standard substrate GP-4NA; assay type: biochemical; conditions: p wt DP IV; competition to GP-4NA
Procedure: (§4) In order to measure the inhibition constant Ki a photometric assay was used The peptides were measured as competitors of the standard substrate GP-4-Nitroanilide. Three different substrate concentrations (0.4 mM to 0.05 mM) were combined with 8 different competitor concentrations (0.5 mM to 2 μM). The reaction was started by addition of 3.5 nM DP IV. Experiments were carried out under standard conditions: 30° C. in pH 7.6 40 mM HEPES (Sigma-Aldrich) buffer. Nitroaniline production was monitored using a HTS 7000+ microplate reader (PerkinElmer, Überlingen, Germany). The Ki-values were calculated via non-linear regression using the enzyme kinetic program Grafit 4.016 (Erithacus Ltd, UK).

DP IV [13] = assay: DP IV-catalyzed truncation of peptides, half-life by MALDI-TOF MS; assay type: biochemical; conditions: for hydrolysis by DP IV: GIP-fragments of different chain lengths
Procedure: as §1, §2

DP IV [14] = assay: Photometric Ki assay, competition with standard substrate GP-4-Nitroanilide; assay type: biochemical; conditions: read-out: Ki, influence on GP-4-Nitroanilide hydrolysis
Procedure: as §4
For a reversible competitive inhibition is to assumed: […]

[15] = preincubation with 160 μM TFTSDY

C[C@H](NC(=O)[C@@H](N)Cc1ccc(O)cc1)C(=O)N[C@@H](CCC(=O)O)C(=O)NCC(=O)N[C@H](C(=O)N[C@@H](Cc1ccccc1)C(=O)O)[C@@H](C)O [GIP1-6, YAEGTF] (H-YAEGTF-OH; N-terminus and C-terminus assumed)
half-life ([1]; bioactive peptides which are substrates for DP IV, read-out: Truncation half life): < 7.5 min

Cc1cc(=O)oc2cc(NC(=O)[C@@H]3CCCN3C(=O)CN)ccc12 [Gly-Pro-AMC, H-Gly-Pro-AMC] (H-Gly-Pro-{AMC})
Km [2]: 50.2 µM
kcat [2]: 1.44e+06 s⁻¹
Km [3]: 35.3 µM
kcat [3]: 1.66e+06 s⁻¹
Km [4]: 46.6 µM
kcat [4]: 1e+06 s⁻¹

Cc1cc(=O)oc2cc(NC(=O)[C@H](CO)NC(=O)CN)ccc12 [Gly-Ser-AMC] (H-Gly-Ser-{AMC})
Km [2]: Not hydrolyzed
Km [3]: 440 µM
Km [4]: Not hydrolyzed

CC(C)[C@@H](NC(=O)[C@@H](CCCCN)NC(=O)[C@H](NC(=O)CNC(=O)[C@@H](NC(=O)[C@@H](CCC(=O)O)NC(=O)[C@@H](N)CO)[C@@H](C)O)C(C)C)C(=O)O [H-Ser-D-Glu-Thr-Gly-D-Val-D-Lys-D-Val-OH] (H-S[dE]TG[dV][dK][dV]-OH)
affinity of larger oligopeptides such as GIP, VIP, glucagon (DP IV [5]): considerably reduced
binding and hydrolysis of small dipeptide substrates (DP IV [5]): only slightly influenced
improving the substrate specificity of DP IV (DP IV [5]; compared to control experiments without the heptapeptide): very effective
stability in biological fluids [6]: not enzymatically degraded

Cc1cc(=O)oc2cc(NC(=O)CNC(=O)[C@@H](N)Cc3c[nH]cn3)ccc12 [His-Gly-AMC] (H-His-Gly-{AMC})
Km (DP IV [7]): 410 µM

CC(C)C[C@H](N)C(=O)N1CCSC1 [Leu-Thia-Fum]
pKi ([8]; read-out: Ki): 7.18
pKi ([9]; read-out: Ki): 7.17
pKi [10]: 7.18
Km [3]: 42.6 µM
Km [11]: 59.8 µM
pKi [12]: 7.14

C[C@@H](O)[C@H](NC(=O)CNC(=O)[C@H](CCC(=O)O)NC(=O)[C@H](CO)NC(=O)[C@@H](N)Cc1ccc(O)cc1)C(=O)N[C@@H](Cc1ccccc1)C(=O)O [S^2GIP1-6] (H-YSEGTF-OH; N-terminus and C-terminus assumed)
Ki [8]: no inhibition
Ki [9]: no inhibition
Ki [10]: no inhibition
half-life [1]: 79 min
hydrolysis by DP IV (DP IV [13]): truncated

C[C@@H](O)[C@H](N)C(=O)N[C@@H](Cc1ccccc1)C(=O)N[C@H](C(=O)N[C@@H](CC(=O)O)C(=O)N[C@@H](CC(=O)O)C(=O)N[C@@H](Cc1ccc(O)cc1)C(=O)O)[C@@H](C)O [TFTDDY] (H-TFTDDY-OH)
stability in biological fluids [6]: instable

C[C@@H](O)[C@H](N)C(=O)N[C@@H](Cc1ccccc1)C(=O)N[C@H](C(=O)N[C@@H](CO)C(=O)N[C@@H](CC(=O)O)C(=O)N[C@@H](Cc1ccc(O)cc1)C(=O)O)[C@@H](C)O [TFTSDY] (H-TFTSDY-OH; N-terminus and C-terminus assumed)
Ki [8]: no inhibition
Ki [9]: no inhibition
Ki [10]: no inhibition
half-lifes of GIP, Glucagon, PACAP-27 and PACAP-38 (DP IV [5]; DP IV (porcine and recombinant human) catalyzed peptide truncation test, FIG. 16): prolongation
affinity of larger oligopeptides such as GIP, VIP, glucagon (DP IV [5]): considerably reduced
binding and hydrolysis of small dipeptide substrates (DP IV [5]): only slightly influenced
half-lives of GIP and glucagon in presence of DP IV (DP IV [5]; [15]): prolonged
incubation of Rantes1-15 and DP IV with or without the hexapeptide (DP IV [5]; [15]): No differences
pKi (DP IV [14]): 3.15
stability in biological fluids [6]: instable

C[C@H](NC(=O)[C@@H](N)Cc1ccc(O)cc1)C(=O)N[C@@H](CCC(=O)O)C(=O)N[C@@H](CO)C(=O)N[C@H](C(=O)N[C@@H](Cc1ccccc1)C(N)=O)[C@@H](C)O [YAESTF amide] (H-YAESTF-NH2; N-terminus assumed)
pKi [10]: 7.45

G^2GIP1-6: GIP-fragment analog (YAEGTF)
Truncation half life (DP IV [13]): no degradation
hydrolysis by DP IV (DP IV [13]): not hydrolyzed

Glucagon
Km (DP IV [7]): 3.8 µM

His^1-Ser^2-NPY: NPY analog, full-length substrate
Km (DP IV [7]): 68 µM

V^2GIP1-6: GIP-fragment analog (YAEGTF)
Truncation half life (DP IV [13]): no degradation
hydrolysis by DP IV (DP IV [13]): not hydrolyzed

V^2GIP(1-4): GIP-fragment analog, test compound of Table 5 (YAEGTF)
Ki [8]: no inhibition
Ki [9]: no inhibition
Ki [10]: no inhibition

[Gly]^2-glucagon: glucagon analog
Km (DP IV [7]): 22 µM

From patent US7816325B2, “Secondary binding site of dipeptidyl peptidase IV (DP IV)” (OSI Pharmaceuticals, Inc., priority 2003, dated 2010)
